Series [1] has as its target T1, human MR (GAL4-MR chimera, amino acids 671 to 984) (Homo sapiens, UniProt P08235).
T1 construct: expressed in transfected cells; host or cells: CV-1 (African Green Monkey Kidney Cells)
T1 sequence (P08235 671-984): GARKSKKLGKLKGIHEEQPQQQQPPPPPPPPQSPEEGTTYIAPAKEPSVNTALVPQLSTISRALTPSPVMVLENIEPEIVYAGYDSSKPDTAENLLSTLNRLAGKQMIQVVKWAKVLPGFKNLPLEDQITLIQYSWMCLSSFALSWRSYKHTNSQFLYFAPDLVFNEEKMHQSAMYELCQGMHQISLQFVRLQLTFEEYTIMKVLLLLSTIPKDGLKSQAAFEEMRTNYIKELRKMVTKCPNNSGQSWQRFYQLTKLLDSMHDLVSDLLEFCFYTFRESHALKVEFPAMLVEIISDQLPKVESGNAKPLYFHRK
Kind of series: GAL4-MR cell based assay (antagonist format). The protocol:
Compound activity was determined in a cell-based assay using a GAL4-MR chimera to identify compounds with the ability to modulate MR activity.
The pCMX-GAL4-MR expression plasmid was constructed by cloning nucleotides encoding amino acids 671 to 984 of human MR (see GenBank sequence AAA59571) into the vector pCMX-GAL4 (Perlmann et al., 1993,Genes & Development 7:1411-1422) comprising nucleotides encoding for amino acids 1-147 of the GAL4 DNA binding domain.
The TK-MH100x4-Luc (GAL4UAS-TK-Luciferase) reporter construct was constructed by insertion of four copies of the Gal4 UAS (Kang et al. 1993, J. Biol. Chem. 268:9629-9635) into the Hind III site of TK-Luc. The parental plasmid, TK-Luc, was prepared by insertion of the Herpes simplex virus thymidine kinase gene promoter (−105 to +51) obtained from the plasmid pBLCAT2 by digestion with HindIII and XhoI (described in Luckow et al., 1987, Nuc. Acid. Res. 15:5490) into the plasmid MMTV-LUC described by Hollenberg and Evans, 1988, Cell 55:899-906) after removal of MMTV-LTR promoter sequence from MMTV-LUC via digestion with HindIII and XhoI. Correct cloning was confirmed by restriction digestion and/or sequencing.
Assays were performed using CV-1 (African Green Monkey Kidney Cells) (ATCC) cells grown in T175 flasks at a density of 3×10^6 cells/flask in DMEM with 5% FBS. Cells were transfected one day after plating at 70-80 percent confluency with a DNA mixture containing (per T175 flask) 9 μg pCMX-GAL4-MR, 9 μg TK-MH100x4-Luc, and 2 μg pCMX β-Gal using the transfection reagent FuGENE6 (Roche Molecular Biochemicals, Indianapolis, Ind.) following recommended protocols and instructions provided by the manufacturer, and incubated with transfection reagents for 5 hours at 37° C.
Transfected cells were trypsinized, resuspended in media, and 45 μL was added to assay plates at a density of approximately 5,000 cells/well using a MultiDrop dispenser (MTX Lab Systems, Inc., VA). The assay plates containing both compounds and screening cells were incubated for approximately 20 hours at 37° C. and 5% CO2 in a tissue culture incubator.
After incubation of the transfected cells with compounds, Lysis buffer (1% Triton X-100, 10% Glycerol, 5 mM DTT, 1 mM EGTA, 25 mM Tricine, pH 7.8) and Luciferin assay buffer (0.73 mM ATP, 22.3 mM Tricine, 0.11 mM EDTA, 33.3 mM DTT, 0.2M MgSO4, 11 mM Luciferin, 6.1 mM Coenzyme A, 0.01 mM HEPES, pH 7.8) were prepared. Media was removed from the plates and lysis buffer and luciferin assay buffer mixed in a 1:1 ratio and then 30 μl of the mixture was added to each well using a Multidrop dispenser. Plates were read on the Northstar (Applied Biosystems, Foster City, Calif.) and data was analyzed using ActivityBase (ID Business Solutions, Ltd., Guildford, Surrey, UK). If required, luciferase values may be normalized for transfection efficiency by measuring β-galactosidase activity based on expression from the pCMX-Gal expression plasmid as described previously (Willy et al., 1995, Gene & Development, 9:1033-1045).

Series [2] in a line: Kinetic solubility assay. The settings on record: pH 7.4, aqueous buffer, kinetic from dmso stock. As for the experimental part: The kinetic solubility of test compounds in buffer was evaluated using a 96 well filtration plate format. A 500 μM assay solution in PBS, pH7.4 (or other assay buffer, as needed) was generated form a DMSO stock solution (up to 10 mM). Samples were transferred to a 96 Millipore MultiScreen HTS 96-well Filter plate (Cat# MSSLBPC10) mixed by shaking for 1.5 hours and processed by filtration prior to quantitation by HPLC-UV. Amiodarone and testosterone were used as reference controls.

Values after ≈ are worked out from the molar mass of the structure shown.

Regarding `Cc1cc(C(=O)NCCc2ccccc2)c(C)n1-c1ccccc1C(F)(F)F` [2,5-dimethyl-1-(2-trifluoromethyl-phenyl)-1H-pyrrole-3-carboxylic acid phenethyl-amide], in series [1], the IC50 (in general, the concentration that gives 50% inhibition) was below 500 nM.
Take `Cc1cc(C(=O)NCCc2ccccc2Cl)c(C)n1-c1ccccc1C(F)(F)F` [2,5-dimethyl-1-(2-trifluoromethyl-phenyl)-1H-pyrrole-3-carboxylic acid [2-(2-chloro-phenyl)-ethyl]-amide]: the IC50 in series [1] was 500 to 1000 nM.
In the case of `Cc1cc(C(=O)NCc2ccc(Oc3ccccc3)cc2)c(C)n1-c1ccccc1C(F)(F)F` [2,5-dimethyl-1-(2-trifluoromethyl-phenyl)-1H-pyrrole-3-carboxylic acid 4-phenoxy-benzylamide], in series [1], the IC50 fell in the range of 1000 to 5000 nM.
As for `C[C@]12CC[C@H]3[C@@H](CCC4=CC(=O)CC[C@@]43C)[C@@H]1CC[C@@H]2O` [testosterone], in series [2], the kinetic solubility – broadly, the concentration staying in solution when a stock, usually in DMSO, is diluted into the medium – at 1.5 h was around 330 µM (≈ 95.2 µg/mL).
For the compound `Cc1cc(C(=O)NCCc2cccs2)c(C)n1-c1ccccc1C(F)(F)F` [2,5-dimethyl-1-(2-trifluoromethyl-phenyl)-1H-pyrrole-3-carboxylic acid (2-thiophen-2-yl-ethyl)-amide], the IC50 in series [1] lay in the range of 500 to 1000 nM.
`Cc1cc(C(=O)Nc2cc(C(F)(F)F)ccc2F)c(C)n1-c1ccccc1C(F)(F)F` [2,5-dimethyl-1-(2-trifluoromethyl-phenyl)-1H-pyrrole-3-carboxylic acid (2-fluoro-5-trifluoromethyl-phenyl)-amide] gave an IC50 in series [1] of 1000 to 5000 nM.
As for `Cc1cc(C(=O)NCCc2cccc(Cl)c2)c(C)n1-c1ccccc1C(F)(F)F` [2,5-dimethyl-1-(2-trifluoromethyl-phenyl)-1H-pyrrole-3-carboxylic acid [2-(3-chloro-phenyl)-ethyl]-amide], the IC50 in series [1] is 1000 to 5000 nM.

These data come from patent publication US8026237B2, “Pyrrole derivatives as pharmaceutical agents” (Exelixis, Inc., priority 2004, dated 2011).
